Data reported in EPA's ToxValDB 9.5 (doi:10.2903/j.efsa.2018.5288).
In brackets after ≈: the same amount, converted by molar mass.

Tests used:
Anas platyrhynchos = conditions: short-term; mortality
Apis mellifera = conditions: acute, mortality
Lepomis macrochirus = conditions: acute; duration: 96 hours; mortality
Mus musculus = conditions: chronic; duration: 18 months; oral; diet; neurology

**Q.** With `CCCCC(CC)COC(=O)[C@@H](C)Oc1ccc(Cl)cc1Cl` (stereo not given in full) [Dichlorprop-P-2-ethylhexyl] as the compound, how does the LD50 (Anas platyrhynchos) read?
**A.** > 928 mg/kg-day

**Q.** What about the LD50 (Apis mellifera; dermal) of the same compound?
**A.** > 180 µg/piece

**Q.** And the LD50 (Apis mellifera; oral, unspecified)?
**A.** > 178 µg/piece

**Q.** And the LD50 (Colinus virginianus; acute, oral, mortality)?
**A.** 1010 mg/kg-day

**Q.** What about the NOEL (Colinus virginianus; reproduction developmental) of the same compound?
**A.** 101 mg/kg-day

**Q.** What about the LC50 (Lepomis macrochirus) of the same compound?
**A.** 7.9 µg/mL (≈ 22.7 µM)

**Q.** What about the NOAEL (Mus musculus) of the same compound?
**A.** 6 mg/kg-day

**Q.** And the LD50 (Rattus norvegicus; acute, mortality)?
**A.** 824 mg/kg-day

**Q.** What about the NOAEL (Rattus norvegicus; developmental, development) of the same compound?
**A.** 80 mg/kg-day

**Q.** And the NOAEL (Rattus norvegicus; reproduction developmental, body weight)?
**A.** 20 mg/kg-day
